Results published in patent US11472778B2, “Hepatitis C virus NS3/4A protease inhibitors” (priority 2017, dated 2022).
Like-named read-outs stand apart in the source and are kept apart here.

Columns and labels:
[1] = biological target: T1, GT1a D168A NS3/4A protease (UniProt P27958, C1185S/D1194A, species not given); assay type: biochemical, Hepatitis C virus; conditions: read-out: Ki (nM) GT1a D168A NS3/4A Protease
T1 construct: Ki (nM) GT1a D168A NS3/4A Protease
Description: (§1) For each assay, 2 nM of NS3/4A protease (GT1, D168A and GT3) was pre-incubated at room temperature for 1 h with increasing concentration of inhibitors in assay buffer [50 mM Tris, 5% glycerol, 10 mM DTT, 0.6 mM LDAO, and 4% dimethyl sulfoxide]. Inhibition assays were performed in nonbinding surface 96-well black half-area plates (Corning) in a reaction volume of 60 μt. […] Three independent data sets were collected for each inhibitor with each protease construct.
as §1, with “(GT1a” for “(GT1, D168A”, “D168A)” for “GT3)”, “(50” for “[50”, “sulfoxide, pH 7.5).” for “sulfoxide].”, “non-binding” for “nonbinding”, “μL.” for “μt.”
(§2) For each assay, 2 nM of NS3/4A protease (GT1a, R155K and D168A) was pre-incubated at room temperature for 1 h with increasing concentration of inhibitors in assay buffer (50 mM Tris, 5% glycerol, 10 mM DTT, 0.6 mM LDAO, and 4% dimethyl sulfoxide, pH 7.5). Inhibition assays were performed in non-binding surface 96-well black half-area plates (Corning) in a reaction volume of 60 μL. […] Three independent data sets were collected for each inhibitor with each protease construct. […] Gibbs free energy of binding was calculated using the following equation: ΔG=RTlnKi

[2] = biological target: GT1a D168A NS3/4A protease; assay type: biochemical, Hepatitis C virus; conditions: Table 3; Ki D168A relative to GT1a WT
Description: as §1
(§3) For each assay, 2 nM of NS3/4A protease (GT1a and D168A) was pre-incubated at room temperature for 1 h with increasing concentration of inhibitors in assay buffer (50 mM Tris, 5% glycerol, 10 mM DTT, 0.6 mM LDAO, and 4% dimethyl sulfoxide, pH 7.5). Inhibition assays were performed in non-binding surface 96-well black half-area plates (Corning) in a reaction volume of 60 μL. […] Three independent data sets were collected for each inhibitor with each protease construct.
as §2

[3] = biological target: T2, wild-type GT1a NS3/4A protease (UniProt P27958, C1185S, species not given); assay type: biochemical, Hepatitis C virus; conditions: read-out: Ki (nM) GT1a WT NS3/4A Protease
T2 construct: Ki (nM) GT1a WT NS3/4A Protease
Description: as §1, §3, §2

[4] = system: HCV replicon D168V variant in Huh7 cells; assay: microbe, parasite or virus in culture; assay type: cell-based, Hepatitis C virus; conditions: for EC50: Hepatitis C virus; for Replicon EC50 (Fold change) D168V: Table 4, relative to WT replicon
Description: (§4) Mutations (R155K, A516T, D168A and D168V) were constructed by site-directed mutagenesis using a Con1 (genotype 1b) luciferase reporter replicon containing the H77 (genotype 1a) NS3 sequence.
Replicon RNA of each protease variant was introduced into Huh7 cells by electroporation. Replication was then assessed in the presence of increasing concentrations of protease inhibitors by measuring luciferase activity (relative light units) 96 h after electroporation. […]

[5] = system: HCV replicon A156T variant in Huh7 cells; assay: microbe, parasite or virus in culture; assay type: cell-based, Hepatitis C virus; conditions: for EC50: Hepatitis C virus; for Replicon EC50 (Fold change) A156T: Table 4, relative to WT replicon
Description: as §4
(§5) Replicon RNA of each protease variant was introduced into Huh7 cells by electroporation. Replication was then assessed in the presence of increasing concentrations of protease inhibitors by measuring luciferase activity (relative light units) 96 h after electroporation.
(§6) Mutations (R155K, D168A and A156T) were constructed by site-directed mutagenesis using a Con1 (genotype 1b) luciferase reporter replicon containing the H77 (genotype 1a) NS3 sequence.^6 Replicon RNA of each protease variant was introduced into Huh7 cells by electroporation. Replication was then assessed in the presence of increasing concentrations of protease inhibitors by measuring luciferase activity (relative light units) 96 h after electroporation.

[6] = system: HCV replicon R155K variant in Huh7 cells; assay: microbe, parasite or virus in culture; assay type: cell-based, Hepatitis C virus; conditions: for EC50: Hepatitis C virus; for Replicon EC50 (Fold change) R155K: Table 4, relative to WT replicon
Description: as §4, §5, §6

[7] = system: HCV replicon D168A variant in Huh7 cells; assay: microbe, parasite or virus in culture; assay type: cell-based, Hepatitis C virus; conditions: for EC50: Hepatitis C virus; for Replicon EC50 (Fold change) D168A: Table 4, relative to WT replicon
Description: as §4, §5, §6

GT3a NS3/4A protease = biological target: T3, GT3a NS3/4A protease (Hepatitis C virus genotype 3a, UniProt Q81495); assay: biochemical; conditions: for Ki (Fold change) GT3a NS3/4A Protease: Table 3, Ki GT3a relative to GT1a WT
T3 construct: drug-resistant variant D168A, and GT3a NS3/4A protease; made in house; host or cells: Escherichia coli BL21(DE3)
Description: as §1

[8] = system: wild-type HCV replicon in Huh7 cells; assay: Cell-based drug susceptibility (replicon) assay, wild-type; conditions: Hepatitis C virus, read-out: Replicon EC50 (nM) WT
Description: as §4, §5, §6

[9] = Huh-7, 96 h, read-out: Replicon EC50 (nM) D168V, Table 2, Huh7 cells, luciferase 96 h
[10] = Huh-7, read-out: Replicon EC50 (nM) D168V, Table 4
[11] = Huh-7, 96 h, read-out: Replicon EC50 (nM) A156T, Table 2, Huh7 cells, luciferase 96 h
[12] = Huh-7, read-out: Replicon EC50 (nM) A156T, Table 4
[13] = Huh-7, 96 h, read-out: Replicon EC50 (nM) R155K, Table 2, Huh7 cells, luciferase 96 h
[14] = Huh-7, read-out: Replicon EC50 (nM) R155K, Table 4
[15] = Huh-7, 96 h, read-out: Replicon EC50 (nM) D168A, Table 2, Huh7 cells, luciferase 96 h
[16] = Huh-7, read-out: Replicon EC50 (nM) D168A, Table 4
[17] = Huh-7, 96 h, Table 2, Huh7 cells, luciferase 96 h

T3 sequence (Q81495 1033-1214): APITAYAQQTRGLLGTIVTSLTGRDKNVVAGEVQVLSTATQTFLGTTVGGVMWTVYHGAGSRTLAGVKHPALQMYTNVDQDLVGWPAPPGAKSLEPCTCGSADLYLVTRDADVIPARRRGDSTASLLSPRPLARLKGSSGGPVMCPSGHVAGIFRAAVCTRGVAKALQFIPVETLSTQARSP

| Structure (SMILES) | Ki ([1]; Table 1) [nM] | Ki ([1]; Table 3) [nM] | Ki (Fold change) GT1a D168A NS3/4A Protease [2] | Ki ([3]; Table 1) [nM] | Ki ([3]; Table 3) [nM] | EC50 [4, 9] [nM] | EC50 [4, 10] [nM] | Replicon EC50 (Fold change) D168V [4] | EC50 [5, 11] [nM] | EC50 [5, 12] [nM] | Replicon EC50 (Fold change) A156T [5] | EC50 [6, 13] [nM] | EC50 [6, 14] [nM] | Replicon EC50 (Fold change) R155K [6] | EC50 [7, 15] [nM] | EC50 [7, 16] [nM] | Replicon EC50 (Fold change) D168A [7] | Ki (GT3a NS3/4A protease) [nM] | Ki (Fold change) GT3a NS3/4A Protease (GT3a NS3/4A protease) | EC50 [8, 17] [nM] | further results |
| --- | --- | --- | --- | --- | --- | --- | --- | --- | --- | --- | --- | --- | --- | --- | --- | --- | --- | --- | --- | --- | --- |
| COc1ccc2nc(Cl)c(O[C@@H]3C[C@H]4C(=O)N[C@]5(C(=O)NS(=O)(=O)C6CC6)C[C@H]5/C=C\CCCCC[C@H](NC(=O)OC5CCCC5)C(=O)N4C3)nc2c1 [Compound 22c, Cyclopentyl ((2R,6S,13aS,14aR,16aS,Z)-2-((3-chloro-7-methoxyquinoxalin-2-yl)oxy)-14a-((cyclopropylsulfonyl)carbamoyl)-5,16-dioxo-1,2,3,5,6,7,8,9,10,11,13a,14,14a,15,16,16a-hexadecahydrocyclopropa[e]pyrrolo[1,2-a][1,4]diazacyclopentadecin-6-yl)carbamate] | 30.6 | 30.6 ± 2.6 | (62) fold | 0.49 | 0.49 | 1.55 | 1.55 | (10) fold | 3.55 | 3.55 | (24) fold | 0.59 | 0.59 | (4) fold | 1.32 | 1.32 | (9) fold | 85.6 | (175) fold | 0.15 | EC50 ([8]; Huh-7, Table 4): 0.15 nM |
| COc1ccc2nc(C(F)(F)F)c(O[C@@H]3C[C@H]4C(=O)N[C@]5(C(=O)NS(=O)(=O)C6CC6)C[C@H]5/C=C\CCCCC[C@H](NC(=O)OC5CCCC5)C(=O)N4C3)nc2c1 [Compound 22d, Cyclopentyl ((2R,6S,13aS,14aR,16aS,Z)-14a-((cyclopropylsulfonyl)carbamoyl)-2-((7-methoxy-3-(trifluoromethyl)quinoxalin-2-yl)oxy)-5,16-dioxo-1,2,3,5,6,7,8,9,10,11,13a,14,14a,15,16,16a-hexadecahydrocyclopropa[e]pyrrolo[1,2-a][1,4]diazacyclopentadecin-6-yl)carbamate] | 115 | 115 ± 12 | (15) fold | 7.55 | 7.55 | 24 | 24 | (5) fold | 117 | 117 | (24) fold | 7.97 | 7.97 | (2) fold | 15.1 | 15.1 | (3) fold | 757 | (100) fold | 4.86 | EC50 ([8]; Huh-7, Table 4): 4.86 nM |
